According to patent publication US9149038B2, “4-amino-6-(heterocyclic)picolinates and 6-amino-2-(heterocyclic)pyrimidine-4-carboxylates and their use as herbicides” (Dow AgroSciences LLC, priority 2013, dated 2015):
Where two headings read alike, the source gives them in different places.

Experiments:
[1] = test system: Key Broadleaf Weed and Crop Species; test: Post-Emergent Test II: postemergent herbicidal activity, visual rating after 14 d (Table 7); type: in vivo; details: post-emergence, 336 h; for pest or weed control at 35 g/ha: 35 g ai/ha; for pest or weed control at 70 g/ha: 70 g ai/ha; for pest or weed control at 140 g/ha: 140 g ai/ha
Summary of the method: (§1)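 Greenhouse plants at first or second true leaf stage sprayed with compound in acetone/DMSO-based spray solution with crop oil concentrate and Triton X-155 at 187 L/ha, tested at highest rate and ½× to 1/16× dilutions; solvent blank controls. Injury rated visually 0–100% versus untreated plants after 14 d.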

[2] = test system: Key Grass and Sedge Weeds as well as Grass Crops; test: Post-Emergent Test II: postemergent herbicidal activity, visual rating after 14 d (Table 8); type: in vivo; details: post-emergence, 336 h; for pest or weed control at 35 g/ha: 35 g ai/ha; for pest or weed control at 70 g/ha: 70 g ai/ha; for pest or weed control at 140 g/ha: 140 g ai/ha
Summary of the method: as §1

[3] = lambsquarters (Chenopodium album), read-out: Visual Growth Reduction (%) 14 Days After Application CHEAL
[4] = oilseed rape, canola (Brassica napus), read-out: Visual Growth Reduction (%) 14 Days After Application BRSNN
[5] = redroot pigweed (Amaranthus retroflexus), read-out: Visual Growth Reduction (%) 14 Days After Application AMARE
[6] = sunflower (Helianthus annuus), read-out: Visual Growth Reduction (%) 14 Days After Application HELAN
[7] = velvetleaf (Abutilon theophrasti), read-out: Visual Growth Reduction (%) 14 Days After Application ABUTH
[8] = wild poinsettia (Euphorbia heterophylla), read-out: Visual Growth Reduction (%) 14 Days After Application EPHHL
[9] = barnyardgrass (Echinochloa crus-galli), read-out: Visual Growth Reduction (%) 14 Days After Application ECHCG
[10] = giant foxtail (Setaria faberi), read-out: Visual Growth Reduction (%) 14 Days After Application SETFA
[11] = maize, corn (Zea mays), read-out: Visual Growth Reduction (%) 14 Days After Application ZEAMX
[12] = rice (Oryza sativa), read-out: Visual Growth Reduction (%) 14 Days After Application ORYSA
[13] = wheat, spring (Triticum aestivum), read-out: Visual Growth Reduction (%) 14 Days After Application TRZAS
[14] = yellow nutsedge (Cyperus esculentus), read-out: Visual Growth Reduction (%) 14 Days After Application CYPES

SMILES | pest or weed control at 35 g/ha [1, 3] [%] | pest or weed control at 70 g/ha [1, 3] [%] | pest or weed control at 140 g/ha [1, 3] [%] | pest or weed control at 35 g/ha [1, 4] [%] | pest or weed control at 70 g/ha [1, 4] [%] | pest or weed control at 140 g/ha [1, 4] [%] | pest or weed control at 35 g/ha [1, 5] [%] | pest or weed control at 70 g/ha [1, 5] [%] | pest or weed control at 140 g/ha [1, 5] [%] | pest or weed control at 35 g/ha [1, 6] [%] | pest or weed control at 70 g/ha [1, 6] [%] | pest or weed control at 140 g/ha [1, 6] [%] | pest or weed control at 35 g/ha [1, 7] [%] | pest or weed control at 70 g/ha [1, 7] [%] | pest or weed control at 140 g/ha [1, 7] [%] | pest or weed control at 35 g/ha [1, 8] [%] | pest or weed control at 70 g/ha [1, 8] [%] | pest or weed control at 140 g/ha [1, 8] [%] | pest or weed control at 35 g/ha [2, 9] [%] | pest or weed control at 70 g/ha [2, 9] [%] | also measured
COc1cc(-c2nc(C(=O)O)c(Cl)c(N)c2F)cc2c1OCO2 [Compound 15] | 0 to 29 | 45 to 59 | 75 to 84 | 0 to 29 | 0 to 29 | 0 to 29 | 0 to 29 | 0 to 29 | 45 to 59 | 0 to 29 | 0 to 29 | 0 to 29 | 0 to 29 | 0 to 29 | 0 to 29 | 0 to 29 | 0 to 29 | 0 to 29 | 0 to 29 | 0 to 29 | pest or weed control at 140 g/ha [2, 9]: 0 to 29%; pest or weed control at 35 g/ha [2, 10]: 0 to 29%; pest or weed control at 70 g/ha [2, 10]: 0 to 29%; pest or weed control at 140 g/ha [2, 10]: 0 to 29%; pest or weed control at 35 g/ha [2, 11]: 0 to 29%; pest or weed control at 70 g/ha [2, 11]: 0 to 29%; pest or weed control at 140 g/ha [2, 11]: 0 to 29%; pest or weed control at 35 g/ha [2, 12]: 0 to 29%; pest or weed control at 70 g/ha [2, 12]: 0 to 29%; pest or weed control at 140 g/ha [2, 12]: 0 to 29%; pest or weed control at 35 g/ha [2, 13]: 0 to 29%; pest or weed control at 70 g/ha [2, 13]: 0 to 29%; pest or weed control at 140 g/ha [2, 13]: 0 to 29%; pest or weed control at 35 g/ha [2, 14]: 0 to 29%; pest or weed control at 70 g/ha [2, 14]: 0 to 29%; pest or weed control at 140 g/ha [2, 14]: 0 to 29%
COc1c(C(=O)O)nc(-c2cc3c(cc2F)OC(F)(F)O3)c(F)c1N [Compound 23] | 0 to 29 | 0 to 29 | 0 to 29 | 0 to 29 | 75 to 84 | 85 to 94 | 0 to 29 | 0 to 29 | 0 to 29 | 75 to 84 | 85 to 94 | 85 to 94 | 0 to 29 | 0 to 29 | 0 to 29 | 95 to 100 | 95 to 100 | 95 to 100 | 75 to 84 | 95 to 100 | pest or weed control at 140 g/ha [2, 9]: 95 to 100%; pest or weed control at 35 g/ha [2, 10]: 60 to 74%; pest or weed control at 70 g/ha [2, 10]: 75 to 84%; pest or weed control at 140 g/ha [2, 10]: 75 to 84%; pest or weed control at 35 g/ha [2, 11]: 60 to 74%; pest or weed control at 70 g/ha [2, 11]: 60 to 74%; pest or weed control at 140 g/ha [2, 11]: 60 to 74%; pest or weed control at 35 g/ha [2, 12]: 0 to 29%; pest or weed control at 70 g/ha [2, 12]: 0 to 29%; pest or weed control at 140 g/ha [2, 12]: 0 to 29%; pest or weed control at 35 g/ha [2, 13]: 45 to 59%; pest or weed control at 70 g/ha [2, 13]: 45 to 59%; pest or weed control at 140 g/ha [2, 13]: 60 to 74%; pest or weed control at 35 g/ha [2, 14]: 0 to 29%; pest or weed control at 70 g/ha [2, 14]: 45 to 59%; pest or weed control at 140 g/ha [2, 14]: 45 to 59%
CC1(C)Oc2ccc(-c3nc(C(=O)O)c(Cl)c(N)c3F)cc2O1 [Compound 19] | 0 to 29 | 0 to 29 | 0 to 29 | 0 to 29 | 45 to 59 | 60 to 74 | 85 to 94 | 85 to 94 | 85 to 94 | 0 to 29 | 0 to 29 | 30 to 44 | 0 to 29 | 60 to 74 | 60 to 74 | 95 to 100 | 95 to 100 | 95 to 100 | 85 to 94 | 85 to 94 | pest or weed control at 140 g/ha [2, 9]: 95 to 100%; pest or weed control at 35 g/ha [2, 10]: 0 to 29%; pest or weed control at 70 g/ha [2, 10]: 0 to 29%; pest or weed control at 140 g/ha [2, 10]: 0 to 29%; pest or weed control at 35 g/ha [2, 11]: 60 to 74%; pest or weed control at 70 g/ha [2, 11]: 60 to 74%; pest or weed control at 140 g/ha [2, 11]: 60 to 74%; pest or weed control at 35 g/ha [2, 12]: 0 to 29%; pest or weed control at 70 g/ha [2, 12]: 0 to 29%; pest or weed control at 140 g/ha [2, 12]: 0 to 29%; pest or weed control at 35 g/ha [2, 13]: 0 to 29%; pest or weed control at 70 g/ha [2, 13]: 0 to 29%; pest or weed control at 140 g/ha [2, 13]: 0 to 29%; pest or weed control at 35 g/ha [2, 14]: 95 to 100%; pest or weed control at 70 g/ha [2, 14]: 95 to 100%; pest or weed control at 140 g/ha [2, 14]: 95 to 100%
